According to paper PMC10857328, “Utilization of Biopolymer-Based Lutein Emulsion as an Effective Delivery System to Improve Lutein Bioavailability in Neonatal Rats” (Nutrients, 2024):

Assays:
[1] = Acute dosing study: tissue lutein profiles; assay type: in vivo, neonatal Sprague-Dawley rats; settings: single oral dose, 10 mg/kg, free lutein or emulsion
Experimental: To determine the bioavailability of lutein in neonatal Sprague-Dawley rats, an acute dosing study was conducted. The procedure was approved by the Institutional Animal Care and Use Committee of the University of Alabama (Number: 21-08-4864, 23 September 2021). On postnatal day 10 (P10), neonatal rats were randomly selected from litters and received a single dose of either free lutein (i.e., lutein ester dissolved in olive oil) or lutein emulsion, both containing 10 mg/kg body weight of lutein. The dose was administered to the pup’s mouth via a pipette. The concentration of lutein ester in the oil phase was 0.004 g/mL. The lutein dosage was selected based on our pilot study and previous studies. It is higher than the dosage used in human newborns but is considered acceptable and safe to be used in pharmacokinetic studies in rodent models. At 0.5 h, 1 h, 2 h, 4 h, 6 h, 12 h, and 24 h after dosing, pups (n = 3/time point/group) were euthanized, and blood, liver, spleen, brain, and eye were collected. Serum was obtained by centrifuging blood samples and tissues were stored at −80 °C until time of analysis. A group of rat pups (n = 3) not receiving treatments were used to measure the baseline lutein concentrations. Throughout the study, maternal rats consumed a purified diet with no lutein (D19120501, Research Diets Inc, New Brunswick, NJ, USA) (Table 1).
Serum and tissue lutein concentration was determined using an ultra-performance liquid chromatography (UPLC) system (Waters, Milford, MA, USA) equipped with a photo-diode array detector (PDA)/MS/MS, according to our well-established methods with slight modification. As for the serum, 100 μL of the sample was incubated with 2 mL of 100% ethanol at room temperature for an hour for lipid extraction. For the tissues, ~0.1 g of the sample was weighed, homogenized, and incubated with 2 mL of 100% ethanol at room temperature for an hour. An amount of 1 mL of 5% (w/v) potassium hydroxide was added to the sample and incubated in a water bath at 60 °C for 45 min for saponification. […]

[2] = Daily dosing studies: body and tissue weights, observable illness; assay type: in vivo, neonatal Sprague-Dawley rats; settings: daily oral administration, 2 mg/kg, P5-P18, both daily dosing studies
Experimental: To determine the effects of daily consumption of CTA-stabilized lutein emulsion on tissue lutein status, two daily dosing studies were conducted. The procedures were approved by the Institutional Animal Care and Use Committee of the University of Alabama (Number: 21-02-4373, 4 February 2021). For daily dosing study 1 (Figure 1B), on P5, rat pups (n = 8–9/group) were randomly selected from the litters and received an oral dose of either free lutein (i.e., lutein ester dissolved in olive oil) or lutein emulsion both containing 2 mg/kg body weight of lutein. […] Dosing was repeated daily until P18. The dosage was determined from previous research in both rodent and human newborns and was also established as an Acceptable Daily Intake for lutein by the Joint Food and Agricultural Organization/World Health Organization. On P19, pups were euthanized. Rats are known to wean between P19 and P21 [47]. Blood from vena cava, liver, spleen, brain, eye, kidney, lung, white adipose tissue (WAT), and brown adipose tissue (BAT) were collected. Blood samples were centrifuged to obtain serum. Serum and collected tissues were frozen at −80 °C until analysis.
To mimic the human dietary intake of lutein, daily dosing study 2 was conducted (Figure 1C). […]

- Earliest time point for lutein to be detectable in brain [1]: 12 h
- Earliest time point for lutein to be detectable in eye [1]: 24 h
- Earliest time point for lutein to be detectable in spleen [1]: 6 h
- Observable illness in the pups [2]: no observable illness
Compound: CC1=C[C@H](O)CC(C)(C)[C@H]1/C=C/C(C)=C/C=C/C(C)=C/C=C/C=C(C)/C=C/C=C(C)/C=C/C1=C(C)C[C@@H](O)CC1(C)C [lutein, Lutein]
